Laboratory results reported in patent US10738101B2, “Method for selecting odor-controlling substance” (Kao Corporation, priority 2015, dated 2020).

Legend:
OR9Q2 = target: T1, OR9Q2 (Homo sapiens, UniProt Q8NGE9); experiment: Luciferase reporter gene assay, OR9Q2-expressing HEK293 cells; type: cell-based; settings: FIG. 2, 5B, 5C
T1 construct: expressed in transfected cells; host or cells: HEK293
T1 sequence (Q8NGE9 1-314): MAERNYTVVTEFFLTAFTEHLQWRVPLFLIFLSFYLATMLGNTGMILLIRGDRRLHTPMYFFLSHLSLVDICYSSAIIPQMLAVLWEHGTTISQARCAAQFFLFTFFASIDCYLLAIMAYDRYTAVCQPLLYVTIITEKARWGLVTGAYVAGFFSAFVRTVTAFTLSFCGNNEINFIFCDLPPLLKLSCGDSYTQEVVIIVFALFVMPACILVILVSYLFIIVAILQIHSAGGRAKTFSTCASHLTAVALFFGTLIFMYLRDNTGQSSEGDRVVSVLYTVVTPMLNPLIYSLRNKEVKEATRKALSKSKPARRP
Source text: (§1) On the basis of sequence information registered in GenBank, genes respectively encoding 370 human olfactory receptors shown in Tables 1-1 and 1-2 and genes respectively encoding the human olfactory receptors OR5AN1, OR10G4 and OR9Q2 (respectively set forth in SEQ ID NOS: 1, 3 and 5) were cloned. Each of the genes was cloned by the PCR using human genomic DNA person (G1521: Promega) as a template. Each gene amplified by the PCR was incorporated into a pENTR vector (Invitrogen) in accordance with the instruction, and was recombined to NotI and AscI sites produced downstream from a Flag-Rho tag sequence on a pME18S vector by using NotI and AscI sites present on the pENTR vector.
(§2) In 1) of Example 1, HEK293 cells on which the 370 human olfactory receptors were respectively expressed were produced. A reaction solution having a composition shown in Table 2 was prepared and allowed to stand still in a clean bench for 15 minutes, and the resultant was added by 4.4 μL per well in a 384-well plate (BioCoat). Subsequently, the HEK293 cells (20×10^4 cells/cm^2) were seeded by 40 μL per well, and the resultant was cultured for 24 hours in an incubator kept at 37° C. and 5% CO2.
(§3) In 2) of Example 1 and Examples 2 and 3, HEK293 cells in which the human olfactory receptor OR5AN1, OR10G4, OR9Q2 or OR1A1 was expressed were produced. A reaction solution having a composition shown in Table 3 was prepared and allowed to stand still in a clean bench for 15 minutes, and the resultant was added by 10 μL per well in a 96-well plate (BioCoat). Subsequently, the HEK293 cells (3×10^5 cells/cm^2) were seeded by 90 μL per well, and the resultant was cultured for 24 hours in an incubator kept at 37° C. and 5% CO2. Cells obtained under conditions for not expressing the olfactory receptor (Mock) were also prepared to be used as a control, and were used similarly in an experiment.
(§4) The olfactory receptor expressed on the HEK293 cells increases the intracellular cAMP amount by activating adenylate cyclase in conjugation with intracellular Gαs. In the measurement of odor response in this study, luciferase reporter gene assay for monitoring the increase of the intracellular cAMP amount as a luminescence value derived from a firefly luciferase gene (fluc2P-CRE-hygro) was employed. Besides, a fused Renilla luciferase (hRluc-CMV) gene was simultaneously transferred downstream of the CMV promoter, so as to be used as an internal standard for correcting the gene transfer efficiency or an error in the number of cells. For measuring the activity of the luciferase, Dual-Glo(™) Luciferase Assay System (Promega) was used, and the measurement was performed in accordance with the operation instruction of the product. Under each of various stimulation conditions, a value fLuc/hRluc obtained by dividing a firefly luciferase-derived luminescence value by a Renilla luciferase-derived luminescence value was calculated. A value obtained by dividing a value fLuc/hRluc induced by stimulation with an odorous substance by a value fLuc/hRluc of a cell not stimulated with the odorous substance was obtained as fold increase, which was used as an index of the response intensity. A dose-response curve was analyzed using Graph Pad Prism.
(§5) The medium was removed from each of the cultures of the olfactory receptor expressing cells produced according to Reference Example 1, and an odorous substance (muscone, guaiacol or p-cresol) was added thereto. A DMEM medium (Nacalai) containing muscone or guaiacol was added to a 384-well plate containing the culture by 30 μL per well (to a final concentration of muscone of 100 μM and of guaiacol of 1 mM). Alternatively, a CD293 medium (Invitrogen) containing p-cresol was added to a 96-well plate containing the culture by 75 μL per well (to a final concentration of 1 mM). […]

OR5AN1 = target: T2, OR5AN1 (Homo sapiens, UniProt Q8NGI8); experiment: Luciferase reporter gene assay, OR5AN1-expressing HEK293 cells; type: cell-based
T2 construct: expressed in transfected cells; host or cells: HEK293
T2 sequence (Q8NGI8 1-311): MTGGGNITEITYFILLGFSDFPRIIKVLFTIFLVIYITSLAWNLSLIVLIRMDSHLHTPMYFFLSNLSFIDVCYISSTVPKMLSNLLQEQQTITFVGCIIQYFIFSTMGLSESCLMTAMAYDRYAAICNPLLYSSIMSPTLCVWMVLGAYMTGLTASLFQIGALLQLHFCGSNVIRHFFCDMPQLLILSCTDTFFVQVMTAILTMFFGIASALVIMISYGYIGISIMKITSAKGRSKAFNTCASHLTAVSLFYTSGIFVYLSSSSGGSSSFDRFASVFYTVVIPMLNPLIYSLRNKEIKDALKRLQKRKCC
Source text: as §1, §2, §3, §4, §5

With `C[C@@H]1CCCCCCCCCCCCC(=O)C1` [muscone, (R)-3-methyl-1-cyclopentadecanone] the “responsiveness of OR9Q2 (fold increase)” value (OR9Q2) was “do not have responsiveness”, the “activation of OR5AN1 response (fold increase)” value (OR5AN1; 0.3 μM to 100 μM, vs Mock cells, FIG. 3) was “activating the response” and the “responsiveness of OR5AN1 among 370 olfactory receptors (response intensity, fold increase)” value (OR5AN1; screen of 370 human olfactory receptors, muscone 100 μM, FIG. 1) was “highest responsiveness”.
